Assay [1] concerns the target SUV39H2 (Homo sapiens (Human), UniProt Q9H5I1). The following applies: read-out: IC50 (μM) Suv 39H2 assay; enzyme assay.
Assay [2] concerns A549. The assay is described as follows: Cell-based assay, anti-proliferative activity (Cell Counting Kit-8, 72 hours). To be noted: Homo sapiens, read-out: IC50 (μM) A549. An outline of the steps: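 Following seeding into 96-well microtiter plates, the cells receive candidate inhibitors, and cellular growth is quantified at the end of the exposure period. An IC50 is computed for each compound.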

The subject of assay [3] is PC14. Described as above. To be noted: Homo sapiens, read-out: IC50 (μM) PC14. An outline of the steps: (§1)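 Growth inhibition is read by Cell Counting Kit-8 after three days of compound treatment. Test concentrations span 0, 1.5625, 3.125, 6.25, 12.5, 25, 50 and 100 micro-M, and IC50 serves as the anti-proliferative measure.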
In assay [4] the test system is HCT-116. Described as above. The following applies: Homo sapiens, read-out: IC50 (μM) HCT-116. Summed up: as §1
Assay [5] deals with HFL1. Described as above. The following applies: Homo sapiens, read-out: IC50 (μM) HFL1. Summed up:
as §1

Assay [6] concerns CCD-18Co. The assay is described as above. The following applies: Homo sapiens, read-out: IC50 (μM) CCD-18Co. An outline of the steps: as §1
Setting [7] is: A549 cells, Cell Counting Kit-8, 72 hours.
Setting [8] is: PC-14, PC14 cells, Cell Counting Kit-8, 72 hours.
Where [9] appears, read: HCT-116 cells, Cell Counting Kit-8, 72 hours.
The mark [10] stands for this setting: HFL1 cells, Cell Counting Kit-8, 72 hours.
The mark [11] stands for this setting: CCD-18Co cells, Cell Counting Kit-8, 72 hours.
Setting [12] is: A549 cells, 72 hours, Cell Counting Kit-8.
[13] abbreviates: PC-14, PC14 cells, 72 hours, Cell Counting Kit-8.
The mark [14] stands for this setting: HCT-116 cells, 72 hours, Cell Counting Kit-8.
Where [15] appears, read: HFL1 cells, 72 hours, Cell Counting Kit-8.
Where [16] appears, read: CCD-18Co cells, 72 hours, Cell Counting Kit-8.

Read-outs that look alike come from different tables or passages of the source.

SUV39H2, sequence (Q9H5I1 whole entry): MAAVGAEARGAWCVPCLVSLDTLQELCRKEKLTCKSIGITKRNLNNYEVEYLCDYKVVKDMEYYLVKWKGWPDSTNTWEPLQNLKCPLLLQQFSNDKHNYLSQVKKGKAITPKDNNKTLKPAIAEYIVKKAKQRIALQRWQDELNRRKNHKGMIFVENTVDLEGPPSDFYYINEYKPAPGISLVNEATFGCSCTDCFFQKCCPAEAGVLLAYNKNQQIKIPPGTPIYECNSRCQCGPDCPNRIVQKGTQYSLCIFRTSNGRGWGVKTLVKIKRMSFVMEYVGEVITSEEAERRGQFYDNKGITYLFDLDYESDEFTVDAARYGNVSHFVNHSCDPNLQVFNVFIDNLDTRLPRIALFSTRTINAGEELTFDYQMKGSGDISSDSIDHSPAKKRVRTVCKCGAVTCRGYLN

`COC(=O)N1CCN(c2ccn3cc(-c4cc(Cl)c(OC)cc4OC)nc3n2)CC1` [Example 159, methyl 4-(2-(5-chloro-2,4-dimethoxyphenyl)imidazo[1,2-a]pyrimidin-7-yl)piperazine-1-carboxylate]: the IC50 (commonly the point on the concentration scale where inhibition reaches its midpoint) in assay [1] was determined as 0.0157 µM; in assay [2] (setting [7]) it was 2.7 µM; in assay [3] (setting [8]) it was 4.7 µM; in assay [4] (setting [9]) it was 3.2 µM; in assay [5] (setting [10]), 3.4 µM; in assay [6] (setting [11]), 3.7 µM.

As to `COc1cc(OC)c(-c2cn3cc(NCCN)c(N4CCCC4)cc3n2)cc1Cl` [Example 60, N^1-(2-(5-chloro-2,4-dimethoxyphenyl)-7-(pyrrolidin-1-yl)imidazo[1,2-a]-pyridin-6-yl)ethane-1,2-diamine], the IC50 worked out at 0.0094 µM in assay [1]; 6.8 µM in assay [2] (A549, 72 h); 2.6 µM in assay [3] (PC-14, 72 h); 6.8 µM in assay [4] (HCT-116, 72 h); 2 µM in assay [5] (HFL1, 72 h); 6 µM in assay [6] (CCD-18Co, 72 h).

For `COc1cc(OC)c(-c2nc3cc(N4CCN(C(=O)OC(C)(C)C)CC4)ccn3c2Br)cc1Cl` [Example 271, tert-butyl 4-(3-bromo-2-(5-chloro-2,4-dimethoxy-phenyl)imidazo[1,2-a]pyridin-7-yl)piperazine-1-carboxylate], the IC50 in assay [1] is 0.0267 µM; in assay [2] (setting [12]), 1.3 µM; in assay [3] (setting [13]) it was 0.57 µM; in assay [4] (setting [14]), 1.5 µM; in assay [5] (setting [15]), 1.2 µM; in assay [6] (setting [16]), 1.4 µM.

In the case of `COC(=O)N[C@H]1CC[C@H](Nc2ccn3cc(-c4cc(Cl)c(OC)cc4OC)nc3c2)CC1` [Example 277, (methyl-4-((2-(5-chloro-2,4-dimethoxyphenyl)imidazo[1,2-a]pyridin-7-yl)amino)-trans-cyclohexyl)carbamate], the IC50 was 0.00524 µM in assay [1]; 0.98 µM in assay [2] (setting [12]); 0.93 µM in assay [3] (setting [13]); 0.8 µM in assay [4] (setting [14]); 0.7 µM in assay [5] (setting [15]); 0.78 µM in assay [6] (setting [16]).

With `CCCS(=O)(=O)NC1CCN(c2ccn3cc(-c4cc(Cl)c(OC)cc4OC)nc3c2)CC1` [Example 174, N-{1-[2-(5-chloro-2,4-dimethoxyphenyl)imidazo[1,2-a]pyridin-7-yl]piperidin-4-yl}propane-1-sulfonamide], the IC50 in assay [1] came out at 0.0104 µM; in assay [2] (setting [7]), 3 µM; in assay [3] (setting [8]), 2.3 µM; in assay [4] (setting [9]) it was 1.8 µM; in assay [5] (setting [10]), 1.7 µM; in assay [6] (setting [11]), 2 µM.

For `COc1cc(OC)c(-c2cn3ccc(N4CCC(NS(=O)(=O)C5CC5)C4)cc3n2)cc1Cl` (stereo not drawn) [Example 63, N-(1-(2-(5-chloro-2,4-dimethoxyphenyl)imidazo[1,2-a]pyridine-7-yl)pyrrolidin-3-yl)cyclopropanesulfonamide], the IC50 in assay [1] worked out at 0.00395 µM; in assay [2] (setting [7]), 3 µM; in assay [3] (setting [8]) it was 2.1 µM; in assay [4] (setting [9]), 1.6 µM; in assay [5] (setting [10]) it was 1.7 µM; in assay [6] (setting [11]) it was 3.8 µM.

With `COc1cc(OC)c(-c2cn3ccc(N4CCC(NS(=O)(=O)Cc5ccccc5)CC4)cc3n2)cc1Cl` [Example 175, N-{1-[2-(5-chloro-2,4-dimethoxyphenyl)imidazo[1,2-a]pyridin-7-yl]piperidin-4-yl}-1-phenylmethanesulfonamide], the IC50 in assay [1] was 0.0263 µM; in assay [2] (setting [7]) it was 2 µM; in assay [3] (setting [8]) it was 1.8 µM; in assay [4] (setting [9]), 1.5 µM; in assay [5] (setting [10]), 1.9 µM; in assay [6] (setting [11]), 2 µM.

On to `COc1cc(OC)c(-c2cn3ccc(C4=CCN(CCN5CCOCC5)CC4)cc3n2)cc1Cl` [Example 144, 4-(2-{4-[2-(5-chloro-2,4-dimethoxyphenyl)imidazo[1,2-a]pyridin-7-yl]-5,6-dihydropyridin-1(2H)-yl}ethyl)morpholine], for which the IC50 in assay [1] is 0.0191 µM; in assay [2] (setting [7]), 3.9 µM; in assay [3] (setting [8]), 1.5 µM; in assay [4] (setting [9]), 5.9 µM; in assay [5] (setting [10]), 7 µM; in assay [6] (setting [11]) it was 6.3 µM.

These data come from patent US10508109B2 (priority 2015, dated 2019).
